# Legend:
# Format in all cases: cell-based
# U373 = experiment: MTT cell viability assay with Chou-Talalay analysis; conditions: Homo sapiens, U373 MG, 96 h, MTT 4 days later
# Experimental: (§1) FIG. 9A depicts that temozolomide (TMZ) synergizes with oncolytic Herpes vector G47Δ in MGMT-negative glioma cell lines U87 and U373. U87 or U373 cells were seeded to 96-well plates at 3000 cells per well. The next day, 1:3 serial dilution series of Temozolomide (TMZ) (EC50 200 μM), and G47Δ (EC50 MOI=0.06) were prepared. TMZ was applied first followed by G47Δ 12 hours later. MTT assay was performed to measure cell viability 4 days later.
# U87 = experiment: as above; conditions: Homo sapiens, U-87 MG, 96 h, MTT 4 days later
# Experimental: as §1
# GBM4 glioma stem cells = experiment: MTS cell viability / cell killing assay with Chou-Talalay analysis; conditions: Homo sapiens, 96 h, MTS 4 days later
# Experimental: (§2) FIG. 10A depicts TMZ synergy with G47delta in MGMT-negative glioma stem cells (GBM4 and GBM8). GBM4 or GBM8 glioma stem cells were seeded to 96-well plates at 5000 cells per well. […] TMZ was applied first followed by G47Δ 12 hours later. MTS assay was performed to measure cell viability 4 days later.
# GBM8 glioma stem cells = experiment: as above; conditions: Homo sapiens, 96 h, MTS 4 days later
# Experimental: as §2
# BT74 glioma stem cells = experiment: MTS cell viability assay with Chou-Talalay analysis; conditions: Homo sapiens, 96 h, MTS 4 days later
# Experimental: BT74 glioma stem cells were seeded to 96-well plates at 5000 cells per well. […] TMZ was applied first, with or without O6-Benzylguanine (O6-BG:80 μM), followed by G47Δ 12 hours later. MTS assay was performed to measure cell viability 4 days later.
# (§3) TMZ was applied first, with or without O6-Benzylguanine (O6-BG:40 or 80 μM), followed by G47Δ 12 hours later. MTS assay was performed to measure cell viability 4 days later.
# GBM13 glioma stem cells = experiment: as above; conditions: Homo sapiens, 96 h, MTS 4 days later
# Experimental: as §3
compound,measurement,setting,value
"Cn1nnc2c(C(N)=O)ncn2c1=O [TMZ, temozolomide]",EC50,U373,200 µM
same,EC50,U87,200 µM
same,EC50,GBM4 glioma stem cells,20 µM
same,EC50,GBM8 glioma stem cells,3 µM
same,EC50,BT74 glioma stem cells,1500 µM
same,EC50,GBM13 glioma stem cells,1500 µM

# Source: patent US8703120B2, “Use of oncolytic herpes viruses for killing cancer stem cells” (The General Hospital Corporation, priority 2008, dated 2014)
